According to paper PMC10454409, “Hybrids of Sterically Hindered Phenols and Diaryl Ureas: Synthesis, Switch from Antioxidant Activity to ROS Generation and Induction of Apoptosis” (International Journal of Molecular Sciences, 2023):
Read-outs that look alike come from different tables or passages of the source.

What was measured:
Type in all cases: cell-based
[1] = tested on: M-HeLa cells (human cervix epithelioid carcinoma); test: MTT cytotoxicity test, M-HeLa; details: Homo sapiens, M-HeLa; MTT test; 24 h incubation per text, 48 h per method
Description: (§1) For the experiments, we used tumor cell cultures M-HeLa clone 11 (epithelioid carcinoma of the cervix, subline HeLa., clone M-HeLa), HuTu 80 (human duodenal adenocarcinoma) and MCF7 (human breast adenocarcinoma (pleural fluid)) from the collection of the Institute of Cytology, Russian Academy of Sciences (St. Petersburg); human liver cells (Chang liver) from the collection of the Research Institute of Virology at the Russian Academy of Medical Sciences (Moscow); and SH-SY5Y (neuroblastoma)from the Laboratory of Tumor Cell Genetics at the Scientific Research Institute of Carcinogenesis N.N. Blokhin National Medical Research Center of Oncology.
(§2) The cytotoxic effect on cells was determined using the colorimetric method of cell proliferation—the MTT test. NADP-H-dependent cellular oxidoreductase enzymes can, under certain conditions, reflect the number of viable cells. These enzymes are able to reduce the tetrazolium dye (MTT)-3-(4,5-dimethylthiazol-2-yl)-2,5-diphenyl-tetrazolium bromide to insoluble blue-violet formazan, which crystallizes inside the cell. The amount of formazan formed is proportional to the number of cells with active metabolism.
(§3) Cells were seeded on a 96-well Nunc plate at a concentration of 5 × 10^3 cells per well in a volume of 100 μL of medium and cultured in a CO2 incubator at 37 °C until a monolayer was formed. […] After 48 h, the nutrient medium was removed from the plates and 100 µL of the nutrient medium without serum with MTT at a concentration of 0.5 mg/mL was added and incubated for 4 h at 37 °C. Formazan crystals were […] 100 µL of DMSO in each well. Optical density was recorded at 540 nm on an in vitro logic microplate reader (Russia). The experiments for all compounds were repeated in triplicate.
(§4) IC50 values were estimated using the Quest Graph IC50 Calculator (AAT Bioquest, Inc., Sunnyvale, CA, USA) (Version 2022) (accessed on 25 June 2022).

[2] = tested on: HuTu 80 cells (human duodenal adenocarcinoma); test: MTT cytotoxicity test, HuTu 80; details: Homo sapiens
Description: as §1, §2, §3, §4

[3] = tested on: SH-SY5Y cells (neuroblastoma); test: MTT cytotoxicity test, SH-SY5Y; details: Homo sapiens, SH-SY5Y; MTT test; 24 h incubation per text, 48 h per method
Description: as §1, §2, §3, §4

[4] = tested on: MCF-7 cells (human breast adenocarcinoma); test: MTT cytotoxicity test, MCF-7; details: Homo sapiens, MCF7, MTT test; 24 h incubation per text, 48 h per method
Procedure: as §2
Formazan crystals were added to 100 µL of DMSO in each well. Optical density was recorded at 540 nm on an in vitro logic microplate reader (Russia). The experiments for all compounds were repeated in triplicate.

[5] = HuTu80, read-out: IC50, HuTu 80
[6] = HuTu80, MTT test, 24 h incubation per text, 48 h per method, read-out: IC50, HuTu 80

Measured: IC50

COP(=O)(OC)C(c1cc(C(C)(C)C)c(O)c(C(C)(C)C)c1)c1ccc(NC(=O)Nc2ccccc2)nc1NC(=O)Nc1ccccc1 (centres unmarked) [5a]
> 70 µM: [1] | [2]; [5] | [3] | [4]

CC(C)OP(=O)(OC(C)C)C(c1cc(C(C)(C)C)c(O)c(C(C)(C)C)c1)c1ccc(NC(=O)Nc2ccccc2)nc1NC(=O)Nc1ccccc1 (centres unmarked) [5c]
> 70 µM: [1] | [2]; [6] | [3] | [4]

CC(C)(C)c1cc(C(c2ccc(NC(=O)Nc3ccccc3)nc2NC(=O)Nc2ccccc2)P(=O)(Oc2ccccc2)Oc2ccccc2)cc(C(C)(C)C)c1O (centres unmarked) [5d]
> 70 µM: [1] | [2]; [5] | [3] | [4]

COP(=O)(OC)C(c1cc(C(C)(C)C)c(O)c(C(C)(C)C)c1)c1ccc(NC(=O)Nc2ccccc2)cc1NC(=O)Nc1ccccc1 (centres unmarked) [6a]
> 70 µM: [1] | [2]; [5] | [3] | [4]

CCOP(=O)(OCC)C(c1cc(C(C)(C)C)c(O)c(C(C)(C)C)c1)c1ccc(NC(=O)Nc2ccccc2)cc1NC(=O)Nc1ccccc1 (centres unmarked) [6b]
> 70 µM: [1] | [2]; [5] | [3] | [4]

CC(C)(C)c1cc(C(c2ccc(NC(=O)Nc3ccccc3)cc2NC(=O)Nc2ccccc2)P(=O)(Oc2ccccc2)Oc2ccccc2)cc(C(C)(C)C)c1O (centres unmarked) [6d]
> 70 µM: [1] | [2]; [5] | [3] | [4]

COP(=O)(OC)C(c1cc(C(C)(C)C)c(O)c(C(C)(C)C)c1)c1ccc(NC(=O)Nc2cccc(C)c2)nc1NC(=O)Nc1cccc(C)c1 (centres unmarked) [8a]
> 70 µM: [1] | [2]; [5] | [3] | [4]

Cc1cccc(NC(=O)Nc2ccc(C(c3cc(C(C)(C)C)c(O)c(C(C)(C)C)c3)P(=O)(OC(C)C)OC(C)C)c(NC(=O)Nc3cccc(C)c3)n2)c1 (centres unmarked) [8c]
> 70 µM: [1] | [2]; [6] | [3] | [4]

Cc1cccc(NC(=O)Nc2ccc(C(c3cc(C(C)(C)C)c(O)c(C(C)(C)C)c3)P(=O)(Oc3ccccc3)Oc3ccccc3)c(NC(=O)Nc3cccc(C)c3)n2)c1 (centres unmarked) [8d]
> 70 µM: [1] | [2]; [5] | [3] | [4]

COP(=O)(OC)C(c1cc(C(C)(C)C)c(O)c(C(C)(C)C)c1)c1ccc(NC(=O)Nc2ccc(C)cc2)nc1NC(=O)Nc1ccc(C)cc1 (centres unmarked) [9a]
> 70 µM: [1] | [2]; [5] | [3] | [4]

CCOP(=O)(OCC)C(c1cc(C(C)(C)C)c(O)c(C(C)(C)C)c1)c1ccc(NC(=O)Nc2ccc(C)cc2)nc1NC(=O)Nc1ccc(C)cc1 (centres unmarked) [9b]
> 70 µM: [1] | [2]; [5] | [3] | [4]

Cc1ccc(NC(=O)Nc2ccc(C(c3cc(C(C)(C)C)c(O)c(C(C)(C)C)c3)P(=O)(OC(C)C)OC(C)C)c(NC(=O)Nc3ccc(C)cc3)n2)cc1 (centres unmarked) [9c]
> 70 µM: [1] | [2]; [6] | [3] | [4]

COc1ccc(NC(=O)Nc2ccc(C(c3cc(C(C)(C)C)c(O)c(C(C)(C)C)c3)P(=O)(OC)OC)c(NC(=O)Nc3ccc(OC)cc3)n2)cc1 (centres unmarked) [10a]
> 70 µM: [1] | [2]; [5] | [3] | [4]

COc1ccc(NC(=O)Nc2ccc(C(c3cc(C(C)(C)C)c(O)c(C(C)(C)C)c3)P(=O)(OC(C)C)OC(C)C)c(NC(=O)Nc3ccc(OC)cc3)n2)cc1 (centres unmarked) [10c]
> 70 µM: [1] | [2]; [6] | [3] | [4]

COc1ccc(NC(=O)Nc2ccc(C(c3cc(C(C)(C)C)c(O)c(C(C)(C)C)c3)P(=O)(Oc3ccccc3)Oc3ccccc3)c(NC(=O)Nc3ccc(OC)cc3)n2)cc1 (centres unmarked) [10d]
> 70 µM: [1] | [2]; [5] | [3] | [4]

CC(C)OP(=O)(OC(C)C)C(c1cc(C(C)(C)C)c(O)c(C(C)(C)C)c1)c1ccc(NC(=O)Nc2ccc(Cl)cc2)nc1NC(=O)Nc1ccc(Cl)cc1 (centres unmarked) [11c]
> 70 µM: [1] | [2]; [6] | [3] | [4]

CC(C)(C)c1cc(C(c2ccc(NC(=O)Nc3ccc(Cl)cc3)nc2NC(=O)Nc2ccc(Cl)cc2)P(=O)(Oc2ccccc2)Oc2ccccc2)cc(C(C)(C)C)c1O (centres unmarked) [11d]
> 70 µM: [1] | [2]; [5] | [3] | [4]

CC(C)OP(=O)(OC(C)C)C(c1cc(C(C)(C)C)c(O)c(C(C)(C)C)c1)c1ccc(NC(=O)Nc2ccc([N+](=O)[O-])cc2)nc1NC(=O)Nc1ccc([N+](=O)[O-])cc1 (centres unmarked) [12c]
> 70 µM: [1] | [2]; [5] | [3] | [4]

CC(C)(C)c1cc(C(c2ccc(NC(=O)Nc3ccc([N+](=O)[O-])cc3)nc2NC(=O)Nc2ccc([N+](=O)[O-])cc2)P(=O)(Oc2ccccc2)Oc2ccccc2)cc(C(C)(C)C)c1O (centres unmarked) [12d]
> 70 µM: [1] | [2]; [5] | [3] | [4]

Cc1cccc(NC(=O)Nc2ccc(C(c3cc(C(C)(C)C)c(O)c(C(C)(C)C)c3)P(=O)(Oc3ccccc3)Oc3ccccc3)c(NC(=O)Nc3cccc(C)c3)c2)c1 (centres unmarked) [13d]
> 70 µM: [1] | [2]; [5] | [3] | [4]

COP(=O)(OC)C(c1cc(C(C)(C)C)c(O)c(C(C)(C)C)c1)c1ccc(NC(=O)Nc2ccc(C)cc2)cc1NC(=O)Nc1ccc(C)cc1 (centres unmarked) [14a]
> 70 µM: [1] | [2]; [5] | [3] | [4]

Cc1ccc(NC(=O)Nc2ccc(C(c3cc(C(C)(C)C)c(O)c(C(C)(C)C)c3)P(=O)(Oc3ccccc3)Oc3ccccc3)c(NC(=O)Nc3ccc(C)cc3)c2)cc1 (centres unmarked) [14d]
> 70 µM: [1] | [2]; [5] | [3] | [4]

COc1ccc(NC(=O)Nc2ccc(C(c3cc(C(C)(C)C)c(O)c(C(C)(C)C)c3)P(=O)(OC)OC)c(NC(=O)Nc3ccc(OC)cc3)c2)cc1 (centres unmarked) [15a]
> 70 µM: [1] | [2]; [5] | [3] | [4]

COc1ccc(NC(=O)Nc2ccc(C(c3cc(C(C)(C)C)c(O)c(C(C)(C)C)c3)P(=O)(Oc3ccccc3)Oc3ccccc3)c(NC(=O)Nc3ccc(OC)cc3)c2)cc1 (centres unmarked) [15d]
> 70 µM: [1] | [2]; [5] | [3] | [4]

COP(=O)(OC)C(c1cc(C(C)(C)C)c(O)c(C(C)(C)C)c1)c1ccc(NC(=O)Nc2ccc(Cl)cc2)cc1NC(=O)Nc1ccc(Cl)cc1 (centres unmarked) [16a]
> 70 µM: [1] | [2]; [5] | [3] | [4]

CC(C)(C)c1cc(C(c2ccc(NC(=O)Nc3ccc(Cl)cc3)cc2NC(=O)Nc2ccc(Cl)cc2)P(=O)(Oc2ccccc2)Oc2ccccc2)cc(C(C)(C)C)c1O (centres unmarked) [16d]
> 70 µM: [1] | [2]; [5] | [3] | [4]

CC(C)(C)c1cc(C(c2ccc(NC(=O)Nc3ccc([N+](=O)[O-])cc3)cc2NC(=O)Nc2ccc([N+](=O)[O-])cc2)P(=O)(Oc2ccccc2)Oc2ccccc2)cc(C(C)(C)C)c1O (centres unmarked) [17d]
> 70 µM: [1] | [2]; [5] | [3] | [4]

COP(=O)(OC)C(c1cc(C(C)(C)C)c(O)c(C(C)(C)C)c1)c1ccc(NC(=S)Nc2ccccc2)nc1N (centres unmarked) [18a]
> 70 µM: [1] | [2]; [5] | [3] | [4]

CCOP(=O)(OCC)C(c1cc(C(C)(C)C)c(O)c(C(C)(C)C)c1)c1ccc(NC(=S)Nc2ccccc2)nc1N (centres unmarked) [18b]
> 70 µM: [1] | [2]; [5] | [3] | [4]

CC(C)(C)c1cc(C(c2ccc(NC(=S)Nc3ccccc3)nc2N)P(=O)(Oc2ccccc2)Oc2ccccc2)cc(C(C)(C)C)c1O (centres unmarked) [18d]
> 70 µM: [1] | [2]; [5] | [3] | [4]

CCOP(=O)(OCC)C(c1cc(C(C)(C)C)c(O)c(C(C)(C)C)c1)c1ccc(NC(=S)Nc2ccccc2)cc1NC(=S)Nc1ccccc1 (centres unmarked) [19b]
> 70 µM: [1] | [2]; [5] | [3] | [4]

CC(C)(C)c1cc(C(c2ccc(NC(=S)Nc3ccccc3)cc2NC(=S)Nc2ccccc2)P(=O)(Oc2ccccc2)Oc2ccccc2)cc(C(C)(C)C)c1O (centres unmarked) [19d]
> 70 µM: [1] | [2]; [5] | [3] | [4]
